ChEMBL document CHEMBL1201862, “PubChem BioAssay data set” (2004)
Values joined by “and” are separate entries in the source; they are usually repeats but may differ in a detail not shown here. Equal entries are not always repeated.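 Step 1: Grow cells in 96-well plates. Step 2: Expose to compound for 48 hours at 5 concentrations. Step 3: Interpolate endpoints linearly; if unreached, use highest concentration. The concentration for 50% growth inhibition is given as GI50.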 Active and inactive are the calls of the source. Cut-off read from the data, not from the text of the source: active = GI50 up to about 1.1 µM and inactive = higher.

Legend:
Test in all cases: NCI tumour cell line growth inhibition, 48 h
[1] = system: MDA-MB-231
[2] = system: UACC-257
[3] = system: SF-295
[4] = system: HCC 2998
[5] = system: RXF 393
[6] = system: OVCAR-8
[7] = system: SW-620
[8] = system: HOP-62
[9] = system: RPMI-8226
[10] = system: A549
[11] = system: MOLT-4
[12] = system: OVCAR-3
[13] = system: SNB-19
[14] = system: NCI/ADR-RES
[15] = system: LOX IMVI
[16] = system: SK-OV-3
[17] = system: TK-10
[18] = system: UO-31
[19] = system: DU-145
[20] = system: EKVX
[21] = system: K562
[22] = system: SNB-75
[23] = system: HOP-92
[24] = system: COLO 205
[25] = system: U-251
[26] = system: CCRF-CEM
[27] = system: UACC-62
[28] = system: NCI-H522
[29] = system: 786-0
[30] = system: HCT-15
[31] = system: SN12C
[32] = system: MDA-MB-435
[33] = system: MCF7
[34] = system: OVCAR-4
[35] = system: M14
[36] = system: PC-3
[37] = system: IGROV-1
[38] = system: SF-539
[39] = system: MDA-N
[40] = system: SK-MEL-2
[41] = system: SF-268
[42] = system: HCT-116
[43] = system: SK-MEL-28
[44] = system: SK-MEL-5
[45] = system: BT-549
[46] = system: KM12
[47] = system: OVCAR-5
[48] = system: NCI-H23
[49] = system: HT-29
[50] = system: ACHN
[51] = system: A498
[52] = system: CAKI-1
[53] = system: Hs-578T

Measured: GI50

CN(C)CC1CCCCCCCCCCC1=O (centres undefined)
inactive: [1] > 10 µM | [2] > 10 µM | [3] > 10 µM | [4] > 10 µM | [5] > 10 µM | [6] > 10 µM

CCOC(=O)N/N=C(/N)Cc1ccc(Cl)cc1
> 100 µM: [30]
inactive: [7] > 100 µM | [8] > 100 µM | [9] > 100 µM | [10] > 100 µM | [11] > 100 µM | [12] > 100 µM | [13] > 100 µM | [14] > 100 µM | [15] > 100 µM | [16] > 100 µM | [17] > 100 µM | [1] > 100 µM | [18] > 100 µM | [19] > 100 µM | [20] > 100 µM | [21] > 100 µM | [22] > 100 µM | [23] > 100 µM | [24] > 100 µM | [25] > 100 µM | [26] > 100 µM | [27] > 100 µM | [2] > 100 µM | [28] > 100 µM | [29] > 100 µM | [3] > 100 µM | [31] > 100 µM | [32] > 100 µM | [33] > 100 µM | [34] > 100 µM | [35] > 100 µM | [36] > 100 µM | [37] > 100 µM | [38] > 100 µM | [39] > 100 µM | [4] > 100 µM | [5] > 100 µM | [40] > 100 µM | [41] > 100 µM | [42] > 100 µM | [43] > 100 µM | [44] > 100 µM | [6] > 100 µM | [45] > 100 µM | [46] > 100 µM | [47] > 100 µM | [48] > 100 µM | [49] > 100 µM | [50] > 100 µM

CC1OC(OC2C(OC(=O)[C@]34CCC(C)(C)C[C@H]3C3=CC[C@@H]5[C@@]6(C)CC[C@H](OC7OC(C(=O)O)C(O)C(OC8OCC(O)C(O)C8O)C7O)C(C)(C)[C@@H]6CC[C@@]5(C)[C@]3(C)CC4)OCC(O)C2O)C(O)C(OC2OCC(O)C(O)C2O)C1OC1OCC(O)C(OC2OCC(O)C(O)C2O)C1O (some centres undefined)
inactive: [8] 14.9 µM and 16.9 µM | [11] 9.91 µM and 17.9 µM | [13] 9.86 µM and 14.2 µM | [14] 7.55 µM and 14.4 µM | [15] 10.8 µM and 13.4 µM | [51] 2.66 µM and 2.28 µM | [17] 11.2 µM | [1] 3.3 µM and 3.16 µM | [19] 15 µM and 28.2 µM | [20] 17.4 µM and 9.31 µM | [22] 12.2 µM and 14.1 µM | [26] 14.6 µM and 13.2 µM | [27] 16.4 µM and 28.8 µM | [29] 12.1 µM and 21.7 µM | [33] 7.93 µM and 5.35 µM | [34] 7.96 µM and 14.3 µM | [36] 9.68 µM and 11.1 µM | [38] 20.5 µM | [52] 5.93 µM and 10.7 µM | [4] 2 µM and 3.89 µM | [5] 15 µM and 18.2 µM | [41] 16.7 µM and 8.51 µM | [44] 14.5 µM and 18.4 µM | [53] 26.6 µM and 18.4 µM | [6] 13.2 µM and 17.5 µM | [48] 7.06 µM and 13.9 µM | [50] 7.28 µM and 12.3 µM
18.6 µM and 15.3 µM: [30]
